Test results taken from patent US12565680B2, “Cancer neoantigens and their utilities in cancer vaccines and TCR-based cancer immunotherapy” (THE METHODIST HOSPITAL SYSTEM, priority 2018, dated 2026).

System: 135TIL
Experiment: TCR β CDR3 repertoire analysis
Set-up: species or system human
Settings: TCRβ CDR3 profiling
Description: To address this issue, PCDHB16 neoantigen-specific CD4^+ T cells were isolated by FACS sorting of PCDHB16-neoantigen T cells from freshly generated bulk T cells after stimulated PCDHB16 neoepitope peptide-pulsed 135EBV-B cells. Using the similar approach, MPG-specific CD8+ T cells were also purified from freshly generated bulk T cells after stimulated MPG neoepitope peptide-pulsed 135EBV-B cells. Genomic DNAs were isolated from the two purified neoantigen-specific T cell populations, as well as the parental bulk T cells, and used as templates for TCR β-chain CDR3 repertoire amplification. […] After the amplicons (from PCDHB16-, MPG-specific T cells and bulk 135TIL) were subjected to deep-sequenced via next-generation sequencing (reads>100,000 per sample), followed by bioinformatic analysis and TCR repertoire alignment. […] The relative TCR sequence frequencies that were identical to those in PCDHB16-specific T cells and MPG-specific T cells were determined in total 135TIL cell population (FIG. 10F). […]
Cytokine Secretion Assay-Detection Kit (MACS Miltenyi Biotec) was used in cell-surface IFN-γ staining based on a commercial protocol. […] Finally cells were washed with cold buffer and ready for flow cytometric analysis. […]

Sequence: ENSPLGTEFPLNYALDLDVGSNNVQ [PCDHB16, immunodominant MHC-II neoantigen of patient #135]
- neoantigen-specific TCRs in the total 135TIL TCRs: 36%
